{"source": "patent US7632814B2", "about": "“HYD1 peptides as anti-cancer agents” (University of South Florida, priority 2006, dated 2009)", "key": {"8226 cells [1]": {"test_system": "8226 cells", "assay": "Cell adhesion to fibronectin (crystal violet staining)", "type": "cell-based", "settings": "varying concentrations, 30 minutes pre-incubation, 2 hours adhesion", "experimental": "FIGS. 30A and 30B are graphs showing that HYD1 but not the scrambled derivative HYD1S inhibited cell adhesion of both 8226 and H929 cells to FN. Varying concentrations of either HYD1, HYD1S, or a 1:100 dilution of either α4β1 or α5β1 integrin functional blocking antibodies was added to either (FIG. 30A) 8226 cell or (FIG. 30B) H929 cells for 30 minutes prior to adding cells to either FN or BSA coated wells. Cells were allowed to adhere for 2 hours and adherent cells were measured by crystal violet staining at 540 nm. Shown is the mean and standard deviation of a representative experiment performed in quadruplicate. Three independent experiments were performed and similar results were obtained.\nQuantification of cell adhesion to fibronectin. […] Cell adhesion was detected by crystal violet staining as previously described (Damiano J S et al. Blood, 1999; 93:1658-1667; Hazlehurst L A et al. Oncogene, 2000; 19:4319-4327).\nBriefly, 8226 myeloma cells were pre-incubated with varying concentrations of either HYD1 or the scrambled HYD1S peptide for 30 minutes prior to allowing cells to attach to FN for two hours. Following two hours of cell adhesion, the amount of cells adherent to FN was measured. […] Twenty-four hours after drug treatment, apoptosis was measured by Annexin V-PE positive events by FACS analysis. […]"}, "8226 cells [2]": {"test_system": "8226 cells", "assay": "Cell adhesion to HS-5 bone marrow stroma cells (CMFDA fluorescence)", "type": "cell-based", "settings": "varying concentrations, 30 minutes pre-incubation, two hours adhesion", "experimental": "(§1) FIGS. 31A and 31B are graphs showing that HYD1 blocks adhesion of 8226 but not H929 cells to the bone marrow stroma cell line HS-5. Varying concentrations of either HYD1, HYD1S or a 1:100 dilution of a β1 integrin functional blocking antibody was added to either (FIG. 31A) CMFDA labeled 8226 cells or (FIG. 31B) CMFDA labeled H929 cells for 30 minutes prior to adding fluorescently labeled cells to either HS-5 or BSA coated wells for two hours. Unadhered cells were gently removed and adherent cells were quantified by total fluorescence. The independent experiments were performed and similar results were obtained.\n(§2) Quantification of cell adhesion to HS-5 bone marrow stroma cells. Adhesion of 8226 or H929 cells to the HS-5 bone marrow stromal cells was performed as previously described (Nefedova Y et al. Leukemia, 2003; 17:1175-1182). Briefly, HS-5 cells were plated at a density of 500,000 cell/ml in a 96 well plate overnight. […] Cells were then counted and placed at a density of one million cells per ml and varying concentrations of peptide were added for 30 minutes prior to addition of 100 μl of cells to either HS-5 or BSA coated plates. Cells were allowed to adhere for two hours and unbound cells were washed with three gentle washes and total fluorescence was detected by a Victor plate reader, at 485 nm excitation and 535 nm emission. […]"}, "H929 cells [3]": {"test_system": "H929 cells", "assay": "Cell adhesion to HS-5 bone marrow stroma cells (CMFDA fluorescence)", "type": "cell-based", "settings": "varying concentrations, 30 minutes pre-incubation, two hours adhesion", "experimental": "as §1, §2"}, "8226 cells [4]": {"test_system": "8226 cells", "assay": "Lysosensor staining of acidic vesicles, confocal microscopy", "type": "cell-based", "settings": "100 μg/ml, six hours, compared to control cells", "experimental": "(§3) Lysosensor green was used to detect acidic compartments and live cell imaging was performed by confocal microscopy. Shown is a representative figure. The experiment was repeated three independent times and similar results were obtained.\n(§4) Lysosensor staining. 35 mm glass bottom microwell dishes were incubated with 10 ul Cell-tak (BD biosciences San Jose, Calif.) and 290 ul 0.5M sodium bicarbonate (Sigma) for 30 minutes. The plates were aspirated and 200,000H929 or 8226 cells were plated. Cells were then treated with either water (VC), 100 μg/ml HYD1 or 100 μg/ml HYD1S for 6 hours. After the 6-hour incubation, the plates were aspirated and washed once with warm media. Media containing 1 μM lysosensor DND-189 (Molecular Probes, Carlsbad Calif.) and 20 μM Hoechst 33342 (Molecular Probes) was added and samples were incubated for an additional 30 minutes. Samples were analyzed with a Leica DMI6000 inverted TCS SP5 confocal scanner (Leica Microsystems, Germany). 405 Diode and Argon laser lines were applied to excite the samples and tunable filters were used to minimize the crosstalk between fluorochromes. Gain, offset, and pinhole setting were identical for all samples within the treatment group. Image sections at […] were captured with photomultiplier detectors and maximum projections were prepared with the LAS AF software version 1.6.0 build 1016 (Leica Microsystems, Germany)."}, "H929 cells [5]": {"test_system": "H929 cells", "assay": "Lysosensor staining of acidic vesicles, confocal microscopy", "type": "cell-based", "settings": "100 μg/ml, six hours, compared to control cells", "experimental": "as §3, §4"}, "prostate tumor cell": {"test_system": "prostate tumor cell", "assay": "Random haptotaxis (cell migration) on laminin 322 (laminin 5)", "type": "cell-based", "settings": "soluble peptide, cells grown on ligand before treatment", "from_the_text": "Defining the minimal region of HYD1 necessary to potentiate drug-induced apoptosis in suspension and adherent cultures is of interest. Below is a study to determine the minimal HYD1 sequence required to block prostate tumor cell migration. Similar studies as those outlined below and using the same peptide sequences will be used to determine the minimal amino acid sequence required for potentiation of drug induced apoptosis.\nThis response to the peptide is independent of disrupting adhesion to laminin 322 (laminin 5) since the cells were grown on a ligand before treatment with the peptide. […] All other alanine-substitution mutants resulted cell migration, i.e., a loss of peptide activity.\nUsing the negative control scrambled peptide, HYDS (SEQ ID NO:44), to indicate 100% cell migration, several truncated peptides including, ikmviswkg (SEQ ID NO:22), kmviswkg (SEQ ID NO:39), and kikmviswk (SEQ ID NO:37) were effective at blocking cell migration by approximately 50%."}, "[6]": {"test_system": "DUH-H prostate carcinoma cells", "settings": "DeRoock et al. 2001; cited from earlier work"}}, "note": "Where no end group is shown, it is not given here. [ ]: non-standard residue; d: D form.", "data": [{"substance": "kikmviswkg ([dK][dI][dK][dM][dV][dI][dS][dW][dK]G) [HYD1]", "values": [{"measurement": "blocking of adhesion of 8226 cells to the extracellular matrix FN", "setting": "8226 cells [1]", "result": "blocks adhesion of 8226 and H929 cells to the extracellular matrix FN in a dose dependent manner"}, {"measurement": "blocking of 8226 cells binding to HS-5 cells", "setting": "8226 cells [2]", "result": "partially blocked"}, {"measurement": "blocking of H929 cells binding to HS-5 cells", "setting": "H929 cells [3]", "result": "no effect"}, {"measurement": "number and size of acidic vesicles", "setting": "8226 cells [4]", "result": "increase in the number and size of acidic vesicles"}, {"measurement": "number and size of acidic vesicles", "setting": "H929 cells [5]", "result": "increase in the number and size of acidic vesicles"}, {"measurement": "blocking of random haptotaxis on laminin 322 (laminin 5)", "setting": "prostate tumor cell", "result": "completely blocks random haptotaxis"}, {"measurement": "inhibition of adhesion to FN, laminin 1, laminin 5 and collagen V", "setting": "[6]", "result": "inhibit adhesion"}]}]}
